Source: patent publication US20260317314A1, “NITROGEN-CONTAINING HETEROCYCLIC COMPOUND AND USE THEREOF” (JIANGSU DEYUAN PHARMACEUTICAL CO.,LTD., priority 2023, published 2026)

Tests used:
CYP1A2 = biological target: T1, CYP1A2 (Homo sapiens, UniProt P05177); assay: Human liver microsome CYP inhibition assay, CYP1A2; assay type: in vitro ADME; settings: role: inhibitor; human liver microsomes, probe substrate; read-out: CYP1A2 half maximal inhibitory concentration IC50
T1 construct: Mixed human liver microsomes (HLM) were purchased from Corning Inc; tissue Corning Inc; host or cells: mixed human liver microsomes (HLM)
T1 sequence (P05177 1-516): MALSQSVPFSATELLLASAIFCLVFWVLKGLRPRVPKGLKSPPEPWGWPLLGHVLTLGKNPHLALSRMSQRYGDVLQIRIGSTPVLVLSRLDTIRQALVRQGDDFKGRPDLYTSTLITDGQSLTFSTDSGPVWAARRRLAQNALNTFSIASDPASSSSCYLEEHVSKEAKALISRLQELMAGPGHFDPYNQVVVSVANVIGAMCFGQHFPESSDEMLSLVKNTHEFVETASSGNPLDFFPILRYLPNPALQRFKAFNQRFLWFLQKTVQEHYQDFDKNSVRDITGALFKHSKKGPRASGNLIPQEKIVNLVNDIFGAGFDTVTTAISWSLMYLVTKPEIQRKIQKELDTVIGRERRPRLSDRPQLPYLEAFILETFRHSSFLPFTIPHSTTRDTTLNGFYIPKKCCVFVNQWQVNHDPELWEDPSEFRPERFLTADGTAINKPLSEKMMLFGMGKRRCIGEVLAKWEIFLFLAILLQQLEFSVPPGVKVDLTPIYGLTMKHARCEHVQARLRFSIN
Protocol: (§1) Experimental objective: To evaluate the inhibitory activity of the test substance on human liver microsomal cytochrome P450 isoenzymes (CYP1A2, CYP2C9, CYP2C19, CYP2D6, CYP3A4) using a 5-in-1 probe substrate for CYP isoenzymes.
(§2) Mixed human liver microsomes (HLM) were purchased from Corning Inc. (Steuben, New York, USA) and stored at temperatures below −70° C. prior to use.
(§3) The working solution of the test substance, which had been diluted to a series of concentrations, was added to an incubation system containing human liver microsomes, probe substrates, and auxiliary factors of the circulatory system. A control containing solvent but no test substance served as an enzyme activity control (100%). The concentration of metabolites produced from probe substrates in the samples was determined using Liquid Chromatography-Tandem Mass Spectrometry (LC-MS/MS) method. Non-linear regression analysis of the average percentage activity of the test substance against its concentration was conducted using SigmaPlot (V.11). The IC50 values were calculated using a three-parameter or four-parameter inverse log equation.

CYP2D6 = biological target: T2, CYP2D6 (Homo sapiens, UniProt P10635); assay: Human liver microsome CYP inhibition assay, CYP2D6; assay type: in vitro ADME; settings: role: inhibitor; human liver microsomes, probe substrate; read-out: CYP2D6 half maximal inhibitory concentration IC50
T2 construct: Mixed human liver microsomes (HLM) were purchased from Corning Inc; tissue Corning Inc; host or cells: mixed human liver microsomes (HLM)
Protocol: as §1, §2, §3

[1] = In vivo pharmacokinetics study in rats; parameters: species or system SD rat; settings: rat, plasma, male SD rats, oral 2 mg/kg
[2] = In vitro liver microsome metabolic stability study; assay type: in vitro ADME; settings: human liver microsomes 0.5 mg/mL, compound 1 μM, 37° C., up to 60 minutes; read-out: Intrinsic hepatic clearance CLint(liver)
Protocol: Stock solution: 10 mM in DMSO.
Only 54 μL of microsomal working solution, 6 μL of NADPH regeneration system working solution, and 180 μL of stop solution were added to the blank plate.
LC-MS/MS analysis was performed.

CYP2C19 = biological target: T3, CYP2C19 (Homo sapiens, UniProt P33261); assay: Human liver microsome CYP inhibition assay, CYP2C19; assay type: in vitro ADME; settings: role: inhibitor; human liver microsomes, probe substrate; read-out: CYP2C19 half maximal inhibitory concentration IC50
T3 construct: Mixed human liver microsomes (HLM) were purchased from Corning Inc; tissue Corning Inc; host or cells: mixed human liver microsomes (HLM)
Protocol: as §1, §2, §3

[3] = Plasma protein binding rate test, human (equilibrium dialysis); assay type: in vitro ADME; settings: 37° C.
Source text: (§4) The sample was thoroughly mixed.

[4] = Plasma protein binding rate test, cynomolgus monkey (equilibrium dialysis); assay type: in vitro ADME; settings: 37° C., read-out: Plasma protein binding rate (%) in cynomolgus monkeys (converted)
Source text: as §4

[5] = Permeability test in MDR1-MDCKII monolayer cell model; assay type: in vitro ADME; settings: dog; for efflux ratio at 2.5 h, 2 µM: MDCK-MDR1, pH 7.4, ER=Papp(BA)/Papp(AB); for Papp A→B at 2.5 h, 2 µM: MDCK-MDR1, pH 7.4, pH 7.40, 2.5 hours, 37±1° C., read-out: Apparent permeability coefficient (Papp (AB))
Protocol: Experimental objective: The permeability and efflux ratio of the compound of the present disclosure were determined using the MDR1-MDCKII monolayer cell model to assess its membrane permeability and potential for P-gp-mediated efflux transport.
Experimental protocol: MDR1-MDCKII cells (obtained from the Netherlands Cancer Institute) were seeded in 96-well plates (obtained from Corning) at a cell density of 3.33×10^5 cells/mL and cultured for 4 to 7 days to form confluent cell monolayers. Hank's balanced salt solution containing 10 mM HEPES (pH 7.40) was used as the transport buffer. The test compound was evaluated for bidirectional transport at a concentration of 2 μM, with the DMSO concentration in the incubation system maintained below 1%. After adding the samples, the cell plate was incubated at 37±1° C., 5% CO2, and saturated humidity for 2.5 hours. All samples were quantitatively analyzed using the LC-MS/MS method. The apparent permeability coefficient (Papp, cm/s) and efflux ratio (ER) were calculated using the following formula. Apparent permeability coefficient (Papp, cm/s) was calculated using the following formula: Papp=(dCr/dt)×Vr/(A×C0). Herein, dCr/dt represents the cumulative concentration of the compound at the receiving end per unit time (μM/s); Vr is the volume of the solution at the receiving end (with solution volumes at the apical and basolateral ends being 0.075 mL and 0.250 mL, respectively); A is the relative surface area of the cell monolayer (0.143 cm^2); C0 is the initial concentration of the test substance at the dosing end (μM) or the peak area ratio of the reference substance. The efflux ratio was calculated using the following formula: ER=Papp(BA)/Papp(AB).

CYP3A4 = biological target: T4, CYP3A4 (Homo sapiens, UniProt P08684); assay: Human liver microsome CYP inhibition assay, CYP3A4; assay type: in vitro ADME; settings: role: inhibitor; human liver microsomes, probe substrate; read-out: CYP3A4 half maximal inhibitory concentration IC50
T4 construct: Mixed human liver microsomes (HLM) were purchased from Corning Inc; tissue Corning Inc; host or cells: mixed human liver microsomes (HLM)
Protocol: as §1, §2, §3

CYP2C9 = biological target: T5, CYP2C9 (Homo sapiens, UniProt P11712); assay: Human liver microsome CYP inhibition assay, CYP2C9; assay type: in vitro ADME; settings: role: inhibitor; human liver microsomes, probe substrate; read-out: CYP2C9 half maximal inhibitory concentration IC50
T5 construct: Mixed human liver microsomes (HLM) were purchased from Corning Inc; tissue Corning Inc; host or cells: mixed human liver microsomes (HLM)
Protocol: as §1, §2, §3

[6] = Plasma protein binding rate test, SD rat (equilibrium dialysis); assay type: in vitro ADME; settings: 37° C., read-out: Plasma protein binding rate (%) in SD rats (converted)
Source text: as §4

T3 sequence (P33261 whole entry): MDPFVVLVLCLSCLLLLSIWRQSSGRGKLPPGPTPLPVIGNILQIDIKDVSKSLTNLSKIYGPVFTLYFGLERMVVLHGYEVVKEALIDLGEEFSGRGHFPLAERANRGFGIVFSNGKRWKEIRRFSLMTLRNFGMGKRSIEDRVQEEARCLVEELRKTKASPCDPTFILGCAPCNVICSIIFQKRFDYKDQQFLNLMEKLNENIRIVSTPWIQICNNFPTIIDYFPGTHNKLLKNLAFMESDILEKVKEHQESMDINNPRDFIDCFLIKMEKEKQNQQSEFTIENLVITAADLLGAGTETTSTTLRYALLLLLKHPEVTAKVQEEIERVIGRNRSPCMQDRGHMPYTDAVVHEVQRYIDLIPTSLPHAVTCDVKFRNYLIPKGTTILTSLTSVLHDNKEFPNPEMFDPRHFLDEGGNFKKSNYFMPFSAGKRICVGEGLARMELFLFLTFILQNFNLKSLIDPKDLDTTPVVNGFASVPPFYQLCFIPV
T2 sequence (P10635 whole entry): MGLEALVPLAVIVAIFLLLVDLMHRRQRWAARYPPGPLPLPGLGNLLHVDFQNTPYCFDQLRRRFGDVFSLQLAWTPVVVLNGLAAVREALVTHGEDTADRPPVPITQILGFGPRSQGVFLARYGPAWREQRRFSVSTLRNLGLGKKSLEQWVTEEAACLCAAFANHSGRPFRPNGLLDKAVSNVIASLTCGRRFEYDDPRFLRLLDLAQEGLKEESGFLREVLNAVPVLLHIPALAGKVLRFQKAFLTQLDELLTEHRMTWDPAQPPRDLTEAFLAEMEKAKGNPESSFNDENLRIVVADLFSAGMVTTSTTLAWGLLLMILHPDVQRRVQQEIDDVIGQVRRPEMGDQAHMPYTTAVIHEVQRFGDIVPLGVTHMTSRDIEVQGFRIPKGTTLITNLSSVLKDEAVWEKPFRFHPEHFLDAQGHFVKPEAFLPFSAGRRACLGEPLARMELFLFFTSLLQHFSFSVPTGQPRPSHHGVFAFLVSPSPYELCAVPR
T4 sequence (P08684 whole entry): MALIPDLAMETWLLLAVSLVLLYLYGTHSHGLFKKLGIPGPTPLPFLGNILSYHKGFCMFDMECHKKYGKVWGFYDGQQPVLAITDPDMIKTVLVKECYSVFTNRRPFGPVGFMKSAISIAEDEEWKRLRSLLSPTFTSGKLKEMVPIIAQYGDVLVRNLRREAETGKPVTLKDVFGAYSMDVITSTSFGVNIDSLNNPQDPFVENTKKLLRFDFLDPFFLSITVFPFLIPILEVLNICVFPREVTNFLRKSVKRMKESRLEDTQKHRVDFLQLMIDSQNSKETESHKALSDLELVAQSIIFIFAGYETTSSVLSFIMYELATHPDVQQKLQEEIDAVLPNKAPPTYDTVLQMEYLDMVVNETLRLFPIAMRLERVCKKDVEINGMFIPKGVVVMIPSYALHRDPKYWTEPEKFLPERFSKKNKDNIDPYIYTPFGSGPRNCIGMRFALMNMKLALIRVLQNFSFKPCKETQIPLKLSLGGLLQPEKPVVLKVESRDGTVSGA
T5 sequence (P11712 whole entry): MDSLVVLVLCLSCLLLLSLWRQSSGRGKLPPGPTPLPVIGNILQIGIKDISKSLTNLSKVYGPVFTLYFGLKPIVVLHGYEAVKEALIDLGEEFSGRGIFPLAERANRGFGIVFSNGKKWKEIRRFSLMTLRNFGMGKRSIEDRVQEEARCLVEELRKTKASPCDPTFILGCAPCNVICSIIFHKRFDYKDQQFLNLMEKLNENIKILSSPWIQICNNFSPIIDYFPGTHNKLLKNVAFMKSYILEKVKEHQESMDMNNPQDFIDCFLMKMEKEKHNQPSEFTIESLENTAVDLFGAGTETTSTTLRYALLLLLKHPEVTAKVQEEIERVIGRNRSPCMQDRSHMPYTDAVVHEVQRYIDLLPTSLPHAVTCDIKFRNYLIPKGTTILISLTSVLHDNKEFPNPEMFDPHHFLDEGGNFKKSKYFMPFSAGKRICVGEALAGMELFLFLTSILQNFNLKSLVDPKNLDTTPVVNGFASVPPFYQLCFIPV

IC50 (CYP1A2) [µM] | IC50 (CYP2D6) [µM] | bioavailability [1] [%] | half-life [1] [h] | Cmax [1] [µM] | AUC(0-t) at 24 h ([1]; read-out: AUC0-24 h) [µM·h] | CLint scaled at 1 µM [2] [L/h/kg] | IC50 (CYP2C19) [µM] | fraction unbound at 4 h [3] | fraction unbound at 4 h [4] | efflux ratio at 2.5 h, 2 µM [5] | Papp A→B at 2.5 h, 2 µM [5] [nm/s] | IC50 (CYP3A4) [µM] | IC50 (CYP2C9) [µM] | fraction unbound at 4 h [6] | SMILES
> 50 | > 50 | 71 | 3.23 | 7.86 | 36.6 | < 0.516 | > 50 | 0.166 | 0.304 | 1.17 | 180 | > 50 | > 50 |  | CCC(=O)NC1CCOc2c(-c3cc4c(s3)N(C)C(=O)CC4)cncc21 (single isomer, unassigned) [Compound 046]
> 50 | > 50 |  |  |  |  | < 0.516 | > 50 | 0.245 | 0.245 | 0.89 | 243 | > 50 | > 50 | 0.139 | CCC(=O)NC1CCCc2c(-c3ccc4c(c3)OCC(=O)N4C)cncc21 (single isomer, unassigned) [Compound 011]
